“And” between values parts separate entries of the source, which are not always exact repeats. Equal entries are not always repeated. “Also recorded” adds a separate entry of the source.

A word on the AUC(0-t): it is exposure summed from dosing to a finite time, without extrapolation to infinity. Broadly, the Cmax is the highest concentration seen after dosing. By IC50 is commonly meant the concentration that gives 50% inhibition. Usually EC50 stands for the concentration giving half of the maximal effect.

Series [1] in a line: Pharmacokinetics in CD-1 mice. The protocol: Whole blood was harvested at specific time points and the separated plasma frozen at −80° C. for storage or used for LC-MS/MS analysis.
The subject of a further series is DLD1CHD1L-EV cells. In words: DNA damage by γ-H2AX immunofluorescence. It counts as cell-based, human. The conditions noted are these: low CHD1L expressing cells. On the procedure: DLD1^CHD1L-OE cells were seeded into a 96-well PerkinElmer Cell Carrier plate and allowed to adhere overnight. Cells were then treated with the appropriate compound at 10 μM (0.5% DMSO) or with CHD1L inhibitor in combination SN-38 (1 μM), oxaliplatin (10 μM), and etoposide (10 μM). Cells were treated for 6 h. Media was aspirated and cells were washed with cold PBS. Cells were then fixed with 3% paraformaldehyde for 15 min at room temperature, fixed cells were washed with PBS three times. Cells were blocked for 1 hour at room temperature in 5% BSA, 0.3% Triton X-100 in PBS. Cells were then immunostained with phospho-(S139)-g-H2AX rabbit mAb using a 1:800 dilution in 1% BSA, 0.3% Triton X-100 in PBS at 4° C. overnight. Primary antibody was aspirated and cells were washed with PBS. Cells were incubated for 2 h at room temperature with goat anti-rabbit Alexa Fluor Plus™ 647 fluorescent secondary antibody at a concentration of 5 μg/mL in 1% BSA, 0.3% Triton X-100 in PBS. Cells were then washed with PBS, Hoechst 33342 stain was diluted to a concentration of 1:1000 in PBS, and added to cells for 15 min at room temperature. Cells were then imaged using a 20× water objective on the Opera Phenix™ HCS imaging system (PerkinElmer). Synergy was determined using the coefficient of drug interaction (CDI) equation, CDI=(A+B)/(AB). Synergy was defined in these experiments with a CDI<0.8. Additivity was 0.8-1.2 and antagonism was defined by a CDI>1.2.
γ-H2AX DNA damage combination studies with irinotecan (SN38). CHD1L inhibitor 6 alone and in combination with SN38 was assessed for DNA damage as previously reported [Abbott et al., 2020; Abraham et al., 2019]. Using DLD1 colorectal cancer cells that have low CHD1L endogenous expression and DLD1 cells engineered to overexpress CHD1L, DNA damage studies were conducted measuring the immunofluorescence of γ-H2AX, a well-established biomarker of DNA damage [Ji et al., 2017; Ivashkevich et al., 2012]. […] Media was aspirated and cells were washed with cold PBS. Cells were then fixed with 3% paraformaldehyde for 15 min at room temperature and washed with PBS three times. Cells were blocked for 1 hour at room temperature in 5% BSA, 0.3% Triton X-100 in PBS. Cells were then immunostained with phospho-(S139)-γ-H2AX rabbit mAb using a 1:800 dilution in 1% BSA, 0.3% Triton X-100 in PBS at 4° C. overnight. Primary antibody was aspirated, and cells were washed with PBS. Cells were incubated for 2 hours at room temperature with goat anti-rabbit Alexa Fluor Plus™ 647 fluorescent secondary antibody at a concentration of 5 μg/mL in 1% BSA, 0.3% Triton X-100 in PBS. Cells were then washed with PBS; Hoechst 33342 stain was diluted to a concentration of 1:1000 in PBS and added to cells for 15 min at room temperature. Cells were then imaged using a 20× water objective on the PerkinElmer Phenix HCS imaging system. […] CDI=(A+B)/(AB), synergy was determined with a CDI<0.8, additivity was 0.8-1.2, and antagonism was defined by a CDI>1.2. Welch's t-test statistical analysis was used to determine significance, where **=P≤0.01.

Series [2] concerns CRC102 patient-derived tumor organoids. The experiment in a line: Patient tumor organoid cytotoxicity. It counts as cell-based. The conditions noted are these: Homo sapiens; single agent, Table 4A. The protocol:
Patient Cell Tumor Organoid Culture. CRC048 and CRC102 patient cell samples were expanded and cultured as PDTOs using reported methodologies and reagents. (Drost et al., 2016; Sato et al., 2011) Briefly, patient cells were washed with PBS, digested with TrypLE, and filtered through 100 μm cell strainer before used in 3D cell culture. Patient cells were seeded at 5,000 cells per well in 96-well plates, coated with 2% Matrigel, and allowed to self-assemble as PDTOs over 72 h.
Tumor Organoid Cytotoxicity.

Series [3] is described as follows: Liver toxicity, histological evaluation. The class given is in vivo, athymic nude mice. More on the design: key to Liver Inflammation score: 0 = none; 1 = minimal; 2 = mild; 3 = moderate; 4 = severe; key to Liver Assessment: N = normal background lesion for mouse strain; A = abnormal. The following applies: for liver toxicity, in words: 50 mg/kg i.p. QD 5 days. On the procedure:
Two million VimPro-GFP SW620 cells suspended in 100 μL of a 1:1 mixture of Matrigel® matrix (Corning Life Sciences, Corning, N.Y.) and RPMI 1640 were injected into the flanks of 9-week old female athymic nude mice (Nude-Foxn1nu (069)) (Envigo, Huntingdon, Cambridgeshire, UK). Growth was monitored with caliper measurements 3× per week. […] Treatments were administered i.p. QD over five days. Mice were sacrificed 2 h after the final dose on day five of the treatment.

The test system of the next series is PDTO CRC102. In words: PDTO viability assay (CellTiter-Blue). The class given is cell-based. The following applies: Homo sapiens, 72 h, read-out: cytotoxicity EC50. The protocol:
CRC patient tumor tissues were obtained from the UCCC GI tissue bank and expanded following established protocols. [Morin et al., 1997]. Briefly, cells were seeded at 5,000 cells per well in 96-well plates and cultured by established methods [Franken et al., 2006] allowing PDTO formation over 72 h. […] PDTO cell viability was measured using CellTiter-Blue® reagent (Promega, Madison, Wis.). Media (80 μL) was aspirated from wells and 80 μL of the reagent was added and incubated for 4 h and cell viability was measured by fluorescence intensity using excitation 560 excitation and 590 emission.

The next series concerns SW620 cells. The experiment in a line: Annexin V-FITC apoptosis assay. It counts as cell-based, human. The conditions noted are these: 12 h, compared to DMSO; positive control SN-38. The protocol:
SW620 cells were plated at 30,000 cells/well in 96-well plates. […] Cells were then rinsed 2× with cold PBS, 1× with cold Annexin-V staining buffer (10 mM HEPES, pH 7.4, 140 mM NaCl, 2.5 mM CaCl2), and then incubated with Annexin-V FITC at 1:100 for 30 min in the dark. Cells were then rinsed 2× with Annexin-V staining buffer and FITC intensity was measured using an EnVision® plate reader (PerkinElmer, Hopkinton, Mass.).

Experimental for SW620 tumor xenografts: In vivo studies. […] Body weight and tumor volumes were monitored 2×/week. […] In addition, irinotecan was administered i.p. at 50 mg/kg.

Regarding `Cc1cc(Nc2ccc(NC(=O)Cc3cccs3)cc2)nc(N2CCCC2)n1` [Compound 6, N-(4-((6-methyl-2-(pyrrolidin-1-yl)pyrimidin-4-yl)amino)phenyl)-2-(thiophen-2-yl)acetamide], the AUC(0-t) in series [1] (female, CD-1, mouse, plasma, ip, 50 mg/kg) was 80300 ng·h/mL. The same compound showed a Cmax in series [1] (female, CD-1, mouse, plasma, ip, 50 mg/kg, CMax (ng/mL), single i.p. 50 mg/kg) of approximately 30000 ng/mL. Further, the “CMax (ng/mL)” value in series [1] (plasma, single i.p. 50 mg/kg, 50 mg/kg) is 29,900 ng/mL. For the same compound, in series [1] (single i.p. 50 mg/kg), the “CL” value is reported as 0.62 L/h/kg and the “V2” value was 2.7 L/kg. Also, in the series on DLD1CHD1L-EV cells, the “DNA damage (γ-H2AX), combination with SN38” value is “nor does it synergize with SN38” and the “DNA damage (γ-H2AX), compound alone” value is recorded as “does not induce significant DNA damage”. The “DNA damage (γ-H2AX), combination with etoposide” value in the series with DLD1CHD1L-EV cells (etoposide 10 μM) is “significant synergy”. Further, the “tumor volume, combination with irinotecan” value in the series with SW620 tumor xenografts (compound 6 5 mg/kg i.p. 2×/day + irinotecan 60 mg/kg i.p. 1×/week, 28 days, vs single agents or control) was “significantly inhibit colon SW620 tumor xenografts to almost no tumor volume”. The “tumor volume after the last treatment, combination with irinotecan” value in the series with SW620 tumor xenografts (compound 6 + irinotecan vs irinotecan alone, last treatment day 28) is listed as “significantly inhibits colon SW620 tumors to almost no tumor volume beyond the last treatment”. In addition, the “survival of tumor-bearing mice, combination with irinotecan” value with SW620 tumor xenografts (compound 6 + irinotecan, compared to vehicle and single agents) is reported as “significantly increases the survival”. The “survival of tumor-bearing mice, compound alone” value with SW620 tumor xenografts (compound 6 alone, compared to vehicle) was “significantly increases the survival”. The IC50 in series [2] was 22.6 µM. Also, the “Liver Assessment” value in series [3] (50 mg/kg QD 5 days, one line per animal, listed as Compound 6.0) was “N (2×) and A (2×)”. In series [3] (50 mg/kg QD 5 days, one line per animal, scored if abnormal), the “Liver Inflammation score” value worked out at 1. The “liver toxicity, in words” value in series [3] was “no evidence of hepatocyte degeneration, necrosis, hyperplasia, or parenchymal inflammation”. For the same compound, the “liver toxicity, in words” value in series [3] (listed as 6.0) is recorded as “no apparent liver toxicity; also recorded: does not display any liver toxicity”. Moreover, the EC50 with PDTO CRC102 came out at 11.6 ± 2 µM. Also, the “apoptosis (annexin-V staining)” value in the series with SW620 cells is reported as “induced significant apoptosis”.

The values above are taken from US20230103444A1 (The Regents of the University of Colorado, a Body Corporate, priority 2020, published 2023).
